Source: patent US20250353864A1, “INDAZOLE CONTAINING MACROCYCLES AND THEIR USE” (BLOSSOMHILL THERAPEUTICS, INC., priority 2022, published 2025)
pIC50: −log10 of the molar value.

How the values were obtained:
Type in all cases: biochemical
EGFR L858R mutant = EGFR L858R mutant (Homo sapiens (Human), UniProt P00533, L858R); experiment: HotSpot radiometric kinase assay, EGFR L858R mutant; settings: 10 μM ATP
Method in brief: (§1)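 Radiometric filter-binding read-out: incorporated 33P was retained on P81 ion-exchange paper after washing away unbound phosphate. Reactions ran 120 min at room temperature with 10 μM final ATP, following ~20 min compound preincubation in Hepes pH 7.5 buffer containing 1% DMSO. IC50 from fitted curves.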

[1] = target: EGFR L858R/T790M/C797S mutant (Homo sapiens (Human), UniProt P00533, C797S/L858R/T790M); experiment: HotSpot radiometric kinase assay, EGFR L858R/T790M/C797S mutant; settings: 10 μM ATP
Method in brief: as §1

EGFR (D770_N771insNPG) = EGFR (D770_N771insNPG) (Homo sapiens (Human), UniProt P00533, INS770NPG); experiment: HotSpot radiometric kinase assay, EGFR (D770_N771insNPG); settings: 10 μM ATP, read-out: EGFR (Δ770_N771insNPG) IC50
Method in brief: as §1

EGFR L858R/T790M mutant = EGFR L858R/T790M mutant (Homo sapiens (Human), UniProt P00533, L858R/T790M); experiment: HotSpot radiometric kinase assay, EGFR L858R/T790M mutant; settings: 10 μM ATP
Method in brief: as §1

EGFR Δ746-750 mutant = EGFR Δ746-750 mutant (Homo sapiens (Human), UniProt P00533, DEL746-750); experiment: HotSpot radiometric kinase assay, EGFR Δ746-750 mutant; settings: 10 μM ATP
Method in brief: as §1

EGFR WT = EGFR WT (Homo sapiens (Human), UniProt P00533); experiment: HotSpot radiometric kinase assay (Reaction Biology), EGFR WT; settings: 10 μM ATP
Method in brief: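 Enzyme and substrate pairs were exposed to inhibitor for roughly 20 min before radiolabelled ATP (10 μM final) was introduced; the reaction proceeded 120 min at ambient temperature in pH 7.5 buffer with 1% DMSO, and phosphorylated product was captured on P81 filters for IC50 determination.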

[2] = target: EGFR Δ746-750/C797S mutant (Homo sapiens (Human), UniProt P00533, C797S/DEL746-750); experiment: HotSpot radiometric kinase assay, EGFR Δ746-750/C797S mutant; settings: 10 μM ATP
Method in brief: as §1

Sequence of EGFR Δ746-750 mutant (P00533 other isoform, or with tags, fused parts or gaps del 1-668/del 746-750 limits assumed): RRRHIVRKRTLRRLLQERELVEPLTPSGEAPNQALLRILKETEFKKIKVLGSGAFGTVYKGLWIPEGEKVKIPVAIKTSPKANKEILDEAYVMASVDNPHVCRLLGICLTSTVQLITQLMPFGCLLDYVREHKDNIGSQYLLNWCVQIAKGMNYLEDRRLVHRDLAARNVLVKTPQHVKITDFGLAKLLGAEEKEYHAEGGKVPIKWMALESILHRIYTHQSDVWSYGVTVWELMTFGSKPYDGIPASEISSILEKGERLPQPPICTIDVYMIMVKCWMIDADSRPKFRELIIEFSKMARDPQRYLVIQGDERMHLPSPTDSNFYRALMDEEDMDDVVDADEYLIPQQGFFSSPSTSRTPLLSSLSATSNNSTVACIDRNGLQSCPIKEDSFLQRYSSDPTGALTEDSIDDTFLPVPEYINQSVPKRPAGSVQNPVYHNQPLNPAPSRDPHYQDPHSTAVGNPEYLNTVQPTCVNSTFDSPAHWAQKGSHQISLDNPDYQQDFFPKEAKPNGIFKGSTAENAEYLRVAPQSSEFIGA
Sequence of EGFR L858R/T790M mutant (P00533 25-1210 T790M/L858R): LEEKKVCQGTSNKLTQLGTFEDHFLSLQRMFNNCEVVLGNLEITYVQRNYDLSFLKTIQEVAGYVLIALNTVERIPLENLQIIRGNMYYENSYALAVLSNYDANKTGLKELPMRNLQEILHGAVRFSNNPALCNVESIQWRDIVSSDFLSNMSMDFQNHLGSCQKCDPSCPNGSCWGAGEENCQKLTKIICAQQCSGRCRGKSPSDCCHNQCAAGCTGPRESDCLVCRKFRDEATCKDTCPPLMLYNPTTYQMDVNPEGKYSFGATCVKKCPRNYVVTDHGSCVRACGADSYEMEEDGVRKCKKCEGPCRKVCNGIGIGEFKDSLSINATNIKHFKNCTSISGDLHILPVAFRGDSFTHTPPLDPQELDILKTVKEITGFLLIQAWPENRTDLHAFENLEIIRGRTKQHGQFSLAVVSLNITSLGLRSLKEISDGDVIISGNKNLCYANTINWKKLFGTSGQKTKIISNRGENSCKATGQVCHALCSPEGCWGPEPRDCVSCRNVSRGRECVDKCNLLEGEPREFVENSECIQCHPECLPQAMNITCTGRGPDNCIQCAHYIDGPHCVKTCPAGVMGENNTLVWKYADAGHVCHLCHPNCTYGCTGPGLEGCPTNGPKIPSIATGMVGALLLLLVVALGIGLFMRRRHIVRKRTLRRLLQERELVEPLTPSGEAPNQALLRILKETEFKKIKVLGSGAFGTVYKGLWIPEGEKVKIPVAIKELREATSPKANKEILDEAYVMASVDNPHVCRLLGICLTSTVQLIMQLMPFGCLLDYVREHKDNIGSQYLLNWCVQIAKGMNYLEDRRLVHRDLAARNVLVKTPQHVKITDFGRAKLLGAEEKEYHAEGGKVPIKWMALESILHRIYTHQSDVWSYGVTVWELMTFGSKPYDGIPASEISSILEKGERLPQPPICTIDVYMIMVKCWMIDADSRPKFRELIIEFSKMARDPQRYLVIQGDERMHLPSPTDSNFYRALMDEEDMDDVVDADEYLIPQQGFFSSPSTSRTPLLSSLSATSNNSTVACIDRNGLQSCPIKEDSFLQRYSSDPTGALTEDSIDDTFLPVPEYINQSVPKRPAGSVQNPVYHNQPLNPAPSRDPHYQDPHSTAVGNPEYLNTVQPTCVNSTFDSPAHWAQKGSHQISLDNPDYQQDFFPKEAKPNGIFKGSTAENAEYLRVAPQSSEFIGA
Sequence of EGFR (D770_N771insNPG) (P00533 other isoform, or with tags, fused parts or gaps del 1-668/ins NPG behind 770 limits assumed): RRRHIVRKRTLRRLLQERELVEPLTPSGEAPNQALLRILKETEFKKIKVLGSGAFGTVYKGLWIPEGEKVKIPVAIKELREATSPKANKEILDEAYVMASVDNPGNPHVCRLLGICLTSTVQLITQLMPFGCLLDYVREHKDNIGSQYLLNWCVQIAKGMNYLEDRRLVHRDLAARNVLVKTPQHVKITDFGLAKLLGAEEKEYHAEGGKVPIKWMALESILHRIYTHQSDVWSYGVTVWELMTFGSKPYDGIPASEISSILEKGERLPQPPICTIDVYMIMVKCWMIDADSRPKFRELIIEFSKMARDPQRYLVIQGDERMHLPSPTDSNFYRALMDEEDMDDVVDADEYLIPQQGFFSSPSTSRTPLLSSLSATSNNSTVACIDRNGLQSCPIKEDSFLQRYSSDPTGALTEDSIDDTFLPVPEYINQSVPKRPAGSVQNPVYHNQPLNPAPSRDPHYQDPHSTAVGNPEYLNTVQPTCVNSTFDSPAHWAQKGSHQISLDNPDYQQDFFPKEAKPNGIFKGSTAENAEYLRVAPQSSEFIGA
Sequence of EGFR Δ746-750/C797S mutant (P00533 other isoform, or with tags, fused parts or gaps C797S/del 1-668/del 746-750 limits assumed): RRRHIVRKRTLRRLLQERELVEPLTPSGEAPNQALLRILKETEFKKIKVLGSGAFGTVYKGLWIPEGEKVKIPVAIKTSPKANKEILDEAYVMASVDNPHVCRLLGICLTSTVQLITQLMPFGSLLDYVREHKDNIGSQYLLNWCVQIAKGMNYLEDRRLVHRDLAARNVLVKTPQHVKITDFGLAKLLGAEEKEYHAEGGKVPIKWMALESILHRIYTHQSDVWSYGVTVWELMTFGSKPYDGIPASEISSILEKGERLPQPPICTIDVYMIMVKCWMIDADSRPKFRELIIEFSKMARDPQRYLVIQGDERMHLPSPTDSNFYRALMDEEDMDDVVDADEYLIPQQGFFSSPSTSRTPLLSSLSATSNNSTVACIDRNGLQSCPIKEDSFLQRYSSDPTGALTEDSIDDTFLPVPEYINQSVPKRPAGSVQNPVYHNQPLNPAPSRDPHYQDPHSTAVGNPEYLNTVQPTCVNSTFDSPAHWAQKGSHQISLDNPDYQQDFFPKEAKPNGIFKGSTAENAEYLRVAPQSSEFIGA
Sequence of EGFR WT (P00533 25-1210): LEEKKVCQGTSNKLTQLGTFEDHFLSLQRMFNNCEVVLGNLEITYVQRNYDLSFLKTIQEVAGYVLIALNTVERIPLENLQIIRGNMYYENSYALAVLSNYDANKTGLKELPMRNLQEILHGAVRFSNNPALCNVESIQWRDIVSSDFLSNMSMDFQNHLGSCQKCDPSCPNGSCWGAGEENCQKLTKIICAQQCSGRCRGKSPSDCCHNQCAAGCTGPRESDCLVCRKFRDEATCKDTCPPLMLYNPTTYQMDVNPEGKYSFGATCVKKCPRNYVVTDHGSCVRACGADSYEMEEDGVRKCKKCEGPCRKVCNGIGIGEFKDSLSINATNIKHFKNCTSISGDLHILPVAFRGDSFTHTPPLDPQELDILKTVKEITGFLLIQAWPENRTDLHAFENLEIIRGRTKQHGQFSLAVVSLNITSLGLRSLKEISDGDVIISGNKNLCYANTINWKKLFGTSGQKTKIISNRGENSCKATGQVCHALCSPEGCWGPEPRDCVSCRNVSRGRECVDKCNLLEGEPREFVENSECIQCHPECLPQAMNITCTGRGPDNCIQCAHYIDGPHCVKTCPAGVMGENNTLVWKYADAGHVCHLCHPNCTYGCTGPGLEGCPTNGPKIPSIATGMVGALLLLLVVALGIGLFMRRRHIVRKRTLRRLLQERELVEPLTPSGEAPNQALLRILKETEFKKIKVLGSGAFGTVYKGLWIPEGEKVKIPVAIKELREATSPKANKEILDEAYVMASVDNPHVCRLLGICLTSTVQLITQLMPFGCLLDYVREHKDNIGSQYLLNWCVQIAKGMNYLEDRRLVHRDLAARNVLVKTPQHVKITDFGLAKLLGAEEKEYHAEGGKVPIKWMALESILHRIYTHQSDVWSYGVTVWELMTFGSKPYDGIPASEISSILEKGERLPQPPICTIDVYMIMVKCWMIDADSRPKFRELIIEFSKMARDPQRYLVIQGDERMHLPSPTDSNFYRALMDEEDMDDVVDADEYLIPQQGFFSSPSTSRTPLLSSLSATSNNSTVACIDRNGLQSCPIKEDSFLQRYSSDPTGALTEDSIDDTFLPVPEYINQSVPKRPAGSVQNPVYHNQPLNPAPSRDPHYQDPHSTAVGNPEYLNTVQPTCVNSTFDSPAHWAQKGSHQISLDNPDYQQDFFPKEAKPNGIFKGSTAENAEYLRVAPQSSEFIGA

Row | pIC50 (EGFR L858R mutant) | pIC50 [1] | pIC50 (EGFR (D770_N771insNPG)) | pIC50 (EGFR L858R/T790M mutant) | pIC50 (EGFR Δ746-750 mutant) | pIC50 (EGFR WT) | pIC50 [2] | SMILES
1 | 7.54 | 8.69 | 6.79 | 8.70 | 8.07 | 6.92 | 7.78 | CCOC(=O)Cn1nc(OCC)c2c1CN(CC)C[C@H](C)Oc1c(cnn1C)-c1ccc3[nH]nc(c3c1)/C=C/2 [Example 218, ethyl [(10S,17E)-16-ethoxy-12-ethyl-8,10-dimethyl-2,8,10,11,12,13-hexahydro-14H-3,5-ethenotripyrazolo[3,4-f:3′,4′-j:4″,3″-n][1,4]oxazacyclopentadecin-14-yl]acetate]
2 | < 6.00 | < 6.00 | < 6.00 | 6.40 | < 6.00 | < 6.00 | < 6.00 | Cn1ncc2c1OCCCOc1nn3ccn(C)c(=O)c3c1/C=C/c1n[nH]c3ccc-2cc13 [Example 91, (20E)-8,18-dimethyl-2,8,11,12-tetrahydro-10H-3,5-ethenodipyrazolo[3″,4″:10′,11′;4′″,3′″:14′,15′][1,5]dioxacyclopentadecino[6′,7′:3,4]pyrazolo[1,5-a]pyrazin-19(18H)-one]
3 | 6.07 | 6.59 | < 6.00 | 6.60 | 7.17 | < 6.00 | 6.75 | Cn1ncc2c1COCCOc1ccccc1/C=C/c1n[nH]c3ccc-2cc13 [Ex. 1, (11E)-1-methyl-1,18,19,21-tetrahydro-8H-10,7,4-(ethan[1]yl[1,2]diylidene)pyrazolo[3,4-f][1,4,12,13]benzodioxadiazacyclooctadecine]
4 | 7.52 | 8.07 | 6.95 | 8.30 | 7.84 | 6.82 | 7.55 | CCc1nn(C)c2c1/C=C/c1n[nH]c3ccc(cc13)-c1cnn(C)c1CN(C)CCO2 [Example 110, (17E)-16-ethyl-8,10,14-trimethyl-2,9,10,11,12,14-hexahydro-8H-3,5-ethenotripyrazolo[3,4-f:4′,3′-j:4″,3″- n][1,4]oxazacyclopentadecine]
5 | 7.46 | 8.07 | 7.18 | 8.33 | 7.68 | 6.88 | 7.50 | Cc1nn(C2CCN(C)C2)c2c1/C=C/c1n[nH]c3ccc(cc13)-c1cnn(C)c1CN(C)CCO2 (centres unmarked) [Example 118, (17E)-8,10,16-trimethyl-14-(1-methylpyrrolidin-3-yl)-2,9,10,11,12,14-hexahydro-8H-3,5-ethenotripyrazolo[3,4-f:4′,3′-j:4″,3″-n][1,4]oxazacyclopentadecine]
6 | 7.82 | 8.24 | 7.25 | 8.91 | 7.55 | 7.17 | 7.53 | Cc1nn([C@H]2CCN(C)C[C@@H]2O)c2c1/C=C/c1n[nH]c3ccc(cc13)-c1cnn(C)c1OCCCO2 (racemic) [Example 82, (rac)-4-[(17E)-8,16-dimethyl-2,8,11,12-tetrahydro-10H,14H-3,5-etheno[1,5]dioxacyclopentadecino[10,11-c:15,14-c′:6,7-c′]tripyrazol-14-yl]-1-methylpiperidin-3-ol]
7 | 6.89 | 7.41 | 6.10 | 7.70 | 7.32 | 6.08 | 7.01 | Cn1ncc2c1OCCN1CC[C@@H](Oc3ccc(C(C)(C)O)cc3/C=C/c3n[nH]c4ccc-2cc34)C1=O [Example 135, (10R,16E)-14-(2-hydroxypropan-2-yl)-3-methyl-3,5,6,9,10,19-hexahydro-8H-20,22-etheno-7,10-methanodipyrazolo[3,4-i:4′,3′-m][1,8,5]benzodioxazacyclooctadecin-25-one]
8 | < 6.00 | < 6.00 | < 6.00 | < 6.00 | < 6.00 | < 6.00 | < 6.00 | Cc1nn([C@H]2COCC[C@@H]2O)c2c1/C=C/c1n[nH]c3ccc(cc13)-c1cnn(C)c1OCCCO2 (racemic) [Example 86, (rac)-1,5-anhydro-2,4-dideoxy-2-[(17E)-8,16-dimethyl-2,8,11,12-tetrahydro-10H,14H-3,5-etheno[1,5]dioxacyclopentadecino[10,11-c:15,14-c′:6,7-c″ ]tripyrazol-14-yl]-L-threo-pentitol]
9 | 5.80 | 7.50 | < 6.00 | 7.25 | 6.33 | < 6.00 | 6.37 | CCOc1nn(CCO)c2c1/C=C/c1n[nH]c3ccc(cc13)-c1cnn(C)c1O[C@@H]1CN(C)C[C@H]1N(C)C2 (single isomer, unassigned) [Ex. 271]
10 | 6.92 | 7.59 | 6.51 | 7.83 | 7.03 | 6.39 | 7.03 | CCc1nn(CCN2CC[C@H](O)C2)c2c1/C=C/c1n[nH]c3ccc(cc13)-c1cnn(C)c1OCCCO2 [Example 69, (3S)-1-{2-[(17E)-16-ethyl-8-methyl-2,8,11,12-tetrahydro-10H,14H-3,5-etheno[1,5]dioxacyclopentadecino[10,11-c:15,14-c′:6,7-c″]tripyrazol-14-yl]ethyl}pyrrolidin-3-ol]
11 | 7.52 | 8.07 | 6.28 | 7.44 | 7.74 | 7.21 | 8.03 | CCOc1nn(CCO)c2c1/C=C/c1n[nH]c3cc(F)c(cc13)-c1c(C)nn(C)c1O[C@@H](C)CN(C(C)C)C2 [Example 239, 2-[(10S,17E)-16-ethoxy-19-fluoro-6,8,10-trimethyl-12-(propan-2-yl)-2,8,10,11,12,13-hexahydro-14H-3,5-ethenotripyrazolo[3,4-f:3′,4′-j:4″,3″-n][1,4]oxazacyclopentadecin-14-yl]ethan-1-ol]
12 | 10.05 | 9.62 | 8.79 | 10.15 | 9.92 | 9.27 | 9.46 | CCN1Cc2c(c(C)nn2CCO)/C=C/c2n[nH]c3ccc(cc23)-c2cnn(C)c2O[C@@H](C)C1 [Example 133, v2-[(10S,17E)-12-ethyl-8,10,16-trimethyl-2,8,10,11,12,13-hexahydro-14H-3,5-ethenotripyrazolo[3,4-f:3′,4′-j:4″,3″-n][1,4]oxazacyclopentadecin-14-yl]ethan-1-ol]
13 | 7.58 | 7.92 | 6.99 | 8.41 | 7.51 | 6.99 | 7.31 | Cc1nn([C@H]2C[C@@H](NCCN(C)C)C2)c2c1/C=C/c1n[nH]c3ccc(cc13)-c1cnn(C)c1OCCCO2 [Example 108, N^2-{(1s,3s)-3-[(17E)-8,16-dimethyl-2,8,11,12-tetrahydro-10H,14H-3,5-etheno[1,5]dioxacyclopentadecino[10,11-c:15,14-c′:6,7-c″]tripyrazol-14-yl]cyclobutyl}-N^1,N^1-dimethylethane-1,2-diamine]
14 | 7.84 | 8.81 | 6.48 | 9.10 | 7.82 | 6.99 | 7.92 | C[C@H]1CN(C)Cc2c(c(OC3CCNCC3)nn2C)/C=C/c2n[nH]c3ccc(cc23)-c2cnn(C)c2O1 [Example 136, (10S,17E)-8,10,12,14-tetramethyl-16-[(piperidin-4-yl)oxy]-2,10,11,12,13,14-hexahydro-8H-3,5-ethenotripyrazolo[3,4-f:3′,4′-j:4″,3″-n][1,4]oxazacyclopentadecine]
